From paper PMC12931155, “Colorectal Cancer Cell's Weapon: RNF32 Engages SPP1^+ Macrophages to Foster Liver Metastasis, Targeted by Indole‐3‐Acetic Acid” (Advanced Science, 2025)

Target: T1, RNF32 (GFP-RNF32) (Homo sapiens, UniProt Q9H0A6)
T1 construct: GFP-RNF32 fusion from plasmid, expressed in HCT116 cells, diluted cell lysate (not purified)
Assay: microscale thermophoresis, GFP-RNF32 in HCT116 lysate
Format: biochemical

T1 sequence (Q9H0A6 whole entry, the tested form may be a part): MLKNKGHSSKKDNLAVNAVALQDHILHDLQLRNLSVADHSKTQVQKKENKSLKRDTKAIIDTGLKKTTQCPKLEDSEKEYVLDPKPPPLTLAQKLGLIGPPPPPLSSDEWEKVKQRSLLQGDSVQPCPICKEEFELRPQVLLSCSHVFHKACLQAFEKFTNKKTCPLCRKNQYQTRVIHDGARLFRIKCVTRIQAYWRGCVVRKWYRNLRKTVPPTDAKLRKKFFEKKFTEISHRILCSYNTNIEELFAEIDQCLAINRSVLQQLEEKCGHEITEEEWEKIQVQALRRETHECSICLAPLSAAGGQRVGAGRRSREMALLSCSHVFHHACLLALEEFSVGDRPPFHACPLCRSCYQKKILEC

O=C(O)Cc1c[nH]c2ccccc12 [indole‐3‐acetic acid]
Kd: 41.3 µM
